Measured values taken from ChEMBL document CHEMBL5257018, “Novel Strategies for the Treatment of Pseudomonas aeruginosa Infections” (J Med Chem, 2016).
pIC50, pKd: −log10 of the molar value.

Legend:
[1] = tested on: Pseudomonas aeruginosa; assay: Antibiofilm activity against Pseudomonas aeruginosa PAO1 assessed as inhibition of biofilm formation; assay type: functional, organism-based
[2] = tested on: Pseudomonas aeruginosa; assay: Antibiofilm activity against Pseudomonas aeruginosa PA14 assessed as inhibition of biofilm formation; assay type: functional, organism-based
[3] = Inhibition of Pseudomonas aeruginosa FabI
[4] = Binding affinity to D-galactose (unknown origin) assessed as dissociation constant
[5] = tested on: Pseudomonas aeruginosa; assay: Antibiofilm activity against Pseudomonas aeruginosa PA14 assessed as inhibition of biofilm formation at 100 uM; assay type: functional; design: scale not given: the % may be the effect or the level left
[6] = Antagonist activity at Pseudomonas aeruginosa MvfR
[7] = Inhibition of quorum sensing system in Pseudomonas aeruginosa PAO1 assessed as decrease in pqsR expression by PCR analysis

SMILES: C/C(=C\c1ccccc1)Cn1cc(CCCCCc2c[nH]c(N)n2)nn1
- pIC50 [1]: 5.25
- pIC50 [2]: 6.28

SMILES: Oc1cc(Cl)ccc1Oc1ccc(Cl)cc1Cl [TRICLOSAN]
- pIC50 [3]: 6.70

SMILES: O=C[C@H](O)[C@@H](O)[C@@H](O)[C@H](O)CO [GALACTOSE]
- pKd [4]: 4.06

SMILES: CCCCCCS(=O)(=O)NCCCc1c[nH]c(N)n1
- Activity [5]: 42%

SMILES: CCCCCCCc1[nH]c2ccc([N+](=O)[O-])cc2c(=O)c1C(N)=O
- pIC50 [6]: 8.70
- pIC50 [7]: 5.70
